Molecules are shown by their SMILES.

On to `CCC1=Cc2cc(OCC(=O)O)c(Cl)c(Cl)c2C1=O`, for which the melting point (in general, the temperature of the solid-liquid transition) was 205 to 207 °C.

Compound `CCCc1c(CSc2nnc(NC(=O)CC(=O)OCc3ccc(OC)cc3)s2)ccc(C(C)=O)c1O` yielded a melting point of 162 to 166 °C.

As to `CCOC(=O)CC[C@H](NC(=O)c1ccc(N)c(C)c1)C(=O)OCC`, the melting point fell in the range of 79 to 82 °C.

`Nc1nc(-c2ccccc2)nc2nc(-c3ccco3)nn12` displayed a melting point of over 300 °C.

`CS(=O)(=O)N(CCBr)N(S(C)(=O)=O)S(C)(=O)=O` showed a melting point of 147 to 148 °C.

The compound `COC(=O)COc1cccc(NC(=O)NCC(=O)N(CC(=O)OC(C)(C)C)c2ccccc2C(=O)c2ccccc2)c1` gave a melting point of 74 to 77 °C.

`Cc1cccc2cc(N3CCN(CCO)CC3)[nH]c(=O)c12` had a melting point of 209 to 210 °C.

As for `Cn1c(=O)c(C(=O)NC2CCCCC2)c(Cl)c2cc(O)ccc21`, the melting point stood at 186 °C.

The compound `CCCCCCC(O)CC(=O)O` (configuration not stated) gave a melting point of 49.3 to 50 °C.

On to `Cc1ccc(C(=O)CCN(C)Cc2cccc3ccccc23)cc1`, for which the melting point lay in the range of 92 to 95 °C.

Compound `N#Cc1ccc(-c2nc(COc3ccc(CCCn4ccnc4)cc3)co2)s1` showed a melting point of 73 to 74 °C.

`CS(=O)(=O)Oc1cccc2c1C(=O)OC2=O` yielded a melting point of 134 to 140 °C.

As to `C=C(Br)c1cc(O)cc2nc(-c3ccc(O)cc3)oc12`, the melting point was 228 to 230 °C.

`O=C1CCCc2ccc(OCCCCN3CCN(c4cccc5c4OCCCO5)CC3)nc2N1` gave a melting point of 200 to 201 °C.

As for `COc1ccc2c(c1)CC(NC(C)=O)CC2` (configuration not stated), the melting point is 105 to 108 °C.

Consider `COC(Nc1ccccc1)(OC)c1ccnc(C(=O)c2ccc(Cl)cc2)c1`, for which the melting point was 137 to 138 °C.

In the case of `CCCCc1nc2cc(Cl)cc(C(=O)O)c2n1C(C)c1ccc(C(=O)O)cc1` (configuration not stated), the melting point lay in the range of 312 to 315 °C.

As for `Cc1c(NC(=O)c2ccc(OCC3CCOC3)cc2)ccc2cc(CNCC(C)C)cnc12` (configuration not stated), the melting point stood at 132 °C.

Consider `O=S(=O)(Nc1nc2ccccc2nc1Nc1cccc2ccccc12)c1ccc(Cl)cc1`, for which the melting point is 262 to 265 °C.

In the case of `CCOC(=O)C(C)(C)Oc1cc2c(cc1C)OC1(CC(C)(C)c3cc(O)c(C)cc3O1)CC2(C)C` (single isomer, unassigned; (-)), the melting point was in the range of 165 to 166 °C.

Compound `Cc1ccc(S(=O)(=O)Nc2ccccc2O)cc1` yielded a melting point of 140 °C.

`CCOC(=O)c1cc2c(cn1)[nH]c1ccc([N+](=O)[O-])c(OCc3ccccc3)c12` yielded a melting point of 254 °C.

In turn, `C=C(C)[C@H]1CC[C@@](C)(O)[C@H](N[C@@H](C)C2CCCCC2)C1` gave a melting point of 63 to 64 °C.

Take `CC(=O)NC[C@H]1CN(c2ccc(C(=O)c3cnc4cnc(Br)cn34)cc2)C(=O)O1`: the melting point fell in the range of 216 to 220 °C.

In turn, `O=C(O)c1cccc(-n2c(-c3ccc(Br)cc3)cc3c2CCCC3)c1` had a melting point of 242 to 244 °C.

Take `O=C1Nc2ccccc2N2CCN(CCc3ccncc3)CC12` (configuration not stated): the melting point lay in the range of 184 to 186 °C.

As to `O=C(/C=C/C=C/C(=O)NCCCOc1cccc(CN2CCCC2)c1)NCCCOc1cccc(CN2CCCC2)c1`, the melting point fell in the range of 178 to 180 °C.

Compound `COC1(c2cccc3[nH]ccc23)CCNCC1` came in with a melting point of 216 °C.

For the compound `Cn1ncc(/C=C/C(=O)Nc2ccc(Cc3n[nH]c(=O)o3)cc2)c1-c1ccc(F)cc1`, the melting point lay within 262 to 263 °C.

`Cc1cccc(C)c1NC(=O)CCN1CCN(CCCC(c2ccc(F)cc2)c2ccc(F)cc2)C(C(N)=O)C1` (configuration not stated) came in with a melting point of 121 °C.

The compound `c1cnc(N2CCN(CCCCn3cnc4ccccc43)CC2)nc1` displayed a melting point of 85 to 88 °C.

For the compound `Cn1c(=O)c2c(I)cccc2n2cnc(-c3noc(C4CC4)n3)c12`, the melting point was in the range of 217 to 220 °C.

Regarding `CCN(CC)C(=O)n1cc(C(F)F)c(S(=O)(=O)c2cc(Cl)cc(Cl)c2)n1`, the melting point is 112 to 113 °C.

For the compound `O=c1c(Cl)c(S(=O)(=O)Cc2ccccc2)cnn1-c1ccccc1`, the melting point was 154 to 156 °C.

The compound `N#Cc1c(C2CC2)nn(-c2c(Cl)cc(C(F)(F)F)cc2Cl)c1N` had a melting point of 197 to 199 °C.

Compound `CCOC(=O)C1=C(N)NC(N)=C(C(=O)OC(C)C)C1c1ccccc1` (configuration not stated) registered a melting point of 170 °C.

As to `Cc1ncc2n1-c1ccc(Cl)cc1C(c1ccccc1F)N(O)C2` (configuration not stated), the melting point lay in the range of 246 to 248 °C.

The compound `CC(=O)OC1CSC(Oc2cncc(-c3cnoc3C)c2)C(OC(C)=O)C1OC(C)=O` (configuration not stated) showed a melting point of 127 °C.

With `N#Cc1cc(C(F)(F)F)[nH]c1-c1ccc(C=O)o1`, the melting point was 224 to 225 °C.

`COc1ccc(C(C#N)N2C(=O)c3cccc(NC(C)=O)c3C2=O)cc1OC1CCCC1` (configuration not stated) came in with a melting point of 124 to 126 °C.

In the case of `C/C(=C(\C#N)C(N)=S)N1CCCN(c2cccc([N+](=O)[O-])c2)CC1`, the melting point lay within 157 to 158 °C.

Compound `CC(=O)OCc1cc2c3ccccc3nc(=O)n2[nH]1` returned a melting point of 186 to 187 °C.

`N#Cc1ccccc1-c1ccc2[nH]c(CCl)nc2c1`: the melting point lay within 150 to 158 °C.

In turn, `CCCOc1ccc(S(=O)(=O)NCCN(C)C)cc1-c1nc2cc(N)c(N)cc2c(=O)[nH]1` displayed a melting point of 202 to 204 °C.

For the compound `CC(=O)N1CCN(CCCOc2ccc(N3CCN(c4ccc5nnc(C(F)(F)F)n5n4)CC3)cc2)CC1`, the melting point is 162 °C.

Consider `CCOP(=O)(CC=CC(=O)O)OCC`, for which the melting point was in the range of 73 to 75 °C.

`Cc1c(-c2ccc(OCC3CC3)cc2)nc2n(Cc3c(F)cccc3F)cc(Br)c(=O)n12` returned a melting point of 230 to 231 °C.

`CC(C)(C)OC(=O)N1C[C@H](OS(C)(=O)=O)C[C@H]1CO` registered a melting point of 95 to 96 °C.

As for `CC(C)Oc1nc(-c2ccc(Cl)cc2)c(CCC(=O)O)o1`, the melting point fell in the range of 116 to 117 °C.

Compound `O=C(Nc1ccc2ccc(-c3cccc(Br)c3)nc2n1)c1ccccc1` came in with a melting point of 204 to 206 °C.

With `CC[C@H](CO)Nc1nc(Nc2ccccn2)c2ncn(C(C)C)c2n1`, the melting point was 30 to 35 °C.

Regarding `O=C(NS(=O)(=O)c1cc(C(F)(F)F)ccc1Cl)c1cn2cc(Br)cnc2n1`, the melting point was over 250 °C.

For `O=c1[nH]c(=Cc2ccc(OCc3ccccc3)cn2)c(=O)[nH]c1=Cc1ccc([N+](=O)[O-])cc1`, the melting point is over 300 °C.

Consider `CCc1c(C#N)c(-c2ccc(C#N)cc2)c(C)n1Cc1cnc(Cl)c(COC(=O)CCC(=O)O)c1`, for which the melting point is 187 to 188 °C.

With `Cc1cnc2ccc(NC3=NCCN3)c(Br)c2n1`, the melting point is over 260 °C.

As to `CCCC12COC(c3ccc(Cl)cc3)(CC1=O)OC2`, the melting point was 96 °C.

Consider `COc1cc(C(=O)N2Cc3ccc(C(=O)NCc4cccc(C(F)(F)F)c4)n3Cc3ccccc32)ccc1-c1ccccc1C`, for which the melting point fell in the range of 176 to 177 °C.

`O=C(Nc1ccccc1)c1sc2c([N+](=O)[O-])c(O)c(O)cc2c1Cl` gave a melting point of 288 °C.

In turn, `COc1ccc(C(=O)N(C)C2N(C)C(c3ccc(F)cc3)=NC2(C(F)(F)F)C(F)(F)F)cc1` (configuration not stated) came in with a melting point of 136 to 137 °C.

Compound `CC1(C)C(=O)N(c2ccc(C#N)c(C(F)(F)F)c2)C(=S)N1CCCCO` displayed a melting point of 78 to 79 °C.

As for `CC1(C)NC(=O)N(c2ccc(Oc3ccccc3)cc2)C1=O`, the melting point came out at 165 °C.

Take `CNC(=C[N+](=O)[O-])N1CC1`: the melting point fell in the range of 118 to 119 °C.

The compound `COC(=O)C[C@]1(C(=O)OC)CC(c2ccc(OC)c(OC3CCCC3)c2)=NO1` returned a melting point of 92 to 93 °C.

As to `Cc1cccc2ncc(C(=O)NC34CC5CC(CC(C5)C3)C4)c(=O)n12`, the melting point lay in the range of 190 to 193 °C.

`CN1CCC(c2nn(-c3ccccc3C(F)(F)F)c3ccccc23)CC1` came in with a melting point of 110 to 111 °C.

Compound `Cc1ccccc1-c1ccc2c(c1)CC[C@H]1N(C)C(=O)CC[C@]21C` came in with a melting point of 82 to 87 °C.

Take `CNC(=O)[C@@H]1C[C@@H](OC)CN1S(=O)(=O)c1ccc(Cl)c(CBr)c1Cl`: the melting point is 64 °C.

As for `CCOC(=O)c1nc(-c2cc(Cl)c(OC)c(OC)c2)cs1`, the melting point lay within 92 to 94 °C.

`CCO/C(C)=C(/C#N)C(N)=S`: the melting point lay within 201 to 204 °C.

Turning to `COc1ccc(C(=CCCC(=O)O)c2ccc(OC)cc2)cc1`, the melting point is 113 to 114 °C.

Turning to `CC(C)(O)C[C@@H]1CO[C@](C)([C@H]2CC[C@H]3[C@@H](O)CCC[C@@]32C)C1`, the melting point turned out to be 67 °C.

`CC(C)NCC(O)COc1ccccc1C1=NNC(=O)CC1` (configuration not stated) registered a melting point of 124 to 126 °C.

The compound `CSc1nccc(-c2cc(C)ccc2NC(=O)C(C)C)n1` returned a melting point of 134 to 135 °C.

Regarding `NC(=O)c1cccc(N2CCN(C(=O)c3c(-c4ccccc4)ccn3CC(=O)O)CC2)c1`, the melting point came out at 132 °C.

The compound `CN(CCCCC(=O)O)c1ccc([N+](=O)[O-])cc1C=O` displayed a melting point of 107 to 108 °C.

In turn, `CCOC(=O)CSc1nc(Cl)c(C)c(NCc2ccc(Cl)cc2)n1` came in with a melting point of 114 to 117 °C.

On to `Cc1ccc(S(=O)(=O)C(C)(C)C(=O)C2CCCCC2)cc1`, for which the melting point fell in the range of 123 to 124 °C.

`c1cc(CCCn2ccnc2)cc(OCc2ccc3oc(-c4cccs4)nc3c2)c1` had a melting point of 86 to 87 °C.

In the case of `COC1(c2cccc(Sc3ccc4c(ccc(=O)n4CC(F)(F)F)c3)c2)CCOCC1`, the melting point lay within 138 to 140 °C.

The compound `CCCCCCCCCCOc1ccc(C(=O)Oc2ccc(OC(=O)[C@@H]3O[C@@H]3CCC)cc2)cc1Cl` registered a melting point of 66.4 °C.

Regarding `Cc1ccc(CC(C(=O)C(Cc2ccc(C)cc2C)N2C(=O)c3ccccc3C2=O)N2C(=O)c3ccccc3C2=O)c(C)c1` (configuration not stated), the melting point was determined as 112 °C.

`CCOC(=O)C1Nc2ccccc2S(=O)(=O)n2cccc21` (configuration not stated) came in with a melting point of 131 to 134 °C.

`CC(C)(COc1ccccc1C1NC(C(=O)O)CS1)CO[N+](=O)[O-]` (configuration not stated) returned a melting point of 105 to 108 °C.

The compound `N#CC1CN1C(=S)NC(=O)c1ccccc1` (configuration not stated) gave a melting point of 135 to 140 °C.

Consider `COc1cc(OC)c(C2=CCN(C)CC2)c(O)c1C(C)=O`, for which the melting point lay in the range of 143 to 144 °C.

Consider `CNC(=O)[C@H](Cc1ccc(OC(C)C)cc1)NC(=O)[C@@H](N)CC(C)C`, for which the melting point was in the range of 148 to 160 °C.

`O=C(O)C(Cl)CCCCCCCCCCCCC(Cl)C(=O)O` (configuration not stated) gave a melting point of 71 to 72 °C.
